Read-outs that look alike come from different tables or passages of the source.
Legend:
[1] = observed only at high concentrations; cited from earlier work
[2] = system: myeloma cells; settings: cited from earlier work
[3] = system: RPMI-8226 cells; settings: historical control; cited from earlier work
[4] = biological target: T1, geranylgeranyl diphosphate synthase (GGDPS) (Homo sapiens, UniProt O95749); settings: read-out: GGDPS IC50; historical control; cited from earlier work
T1 sequence (O95749 1-300): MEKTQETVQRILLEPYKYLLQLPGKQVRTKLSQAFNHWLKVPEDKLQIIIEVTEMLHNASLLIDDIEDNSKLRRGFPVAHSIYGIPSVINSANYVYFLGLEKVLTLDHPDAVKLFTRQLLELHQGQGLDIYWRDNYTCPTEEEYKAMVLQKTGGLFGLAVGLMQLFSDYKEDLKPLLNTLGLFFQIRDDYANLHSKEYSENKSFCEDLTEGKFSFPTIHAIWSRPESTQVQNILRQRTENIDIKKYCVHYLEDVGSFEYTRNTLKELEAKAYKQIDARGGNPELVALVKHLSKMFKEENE

[5] = biological target: T1, geranylgeranyl diphosphate synthase (GGDPS); experiment: Enzyme assay utilizing recombinant GGDPS; assay type: biochemical
[6] = system: farnesyl diphosphate synthase (FDPS); settings: in words; cited from earlier work

In the case of `CC(C)=CCC/C(C)=C/CC(C/C=C(\C)CCC=C(C)C)(P(=O)(O)O)P(=O)(O)O` [Compound 3, digeranyl bisphosphonate], the “Concentration at which cellular activity was observed” value [1] is given as ~ 10 μM.
In the case of `CC(C)=CCC/C(C)=C\CCn1cc(CC(C)(P(=O)([O-])[O-])P(=O)([O-])[O-])nn1.[Na+].[Na+].[Na+].[Na+]` [Compound 6], the “Cellular activity, lowest concentration” value [2] is given as 20 nM, the “Cellular LEC (lowest effective concentration)” value [3] is given as 0.02 µM and the IC50 [4] is given as 0.125 ± 0.027 µM.
In the case of `CC(C)=CCC/C(C)=C/Cn1cc(CC(N)(P(=O)(O)O)P(=O)(O)O)nn1` [Compound 18], the “GGDPS inhibitory activity in enzyme assay” value [5] is reported as “no activity”.
For `CC(C)=CCC/C(C)=C/CCn1cc(CC(P(=O)([O-])[O-])P(=O)([O-])[O-])nn1.[Na+].[Na+].[Na+].[Na+]` [Compound 5], the “Cellular activity, lowest concentration” value ([2]; myeloma cells, mixture of olefin isomers) is given as 30 nM and the “Specificity for GGDPS over FDPS” value [6] is given as “high specificity”.
For `CC(C)=CCC/C(C)=C/CCn1cc(CC(C)(P(=O)([O-])[O-])P(=O)([O-])[O-])nn1.[Na+].[Na+].[Na+].[Na+]` [Compound 7], the “Cellular activity, lowest concentration” value [2] is given as 25 nM and the IC50 [4] is given as 0.086 ± 0.022 µM.

Reference: PMC10981527 (Bioorganic & medicinal chemistry letters, 2024)
